For the assay, the target named is T1, p110α Type Ia human PI3K (Homo sapiens, UniProt P42336).
T1 construct: full length DNA of each of the p110α, p110β and p110δ Type Ia human PI3K p110 isoforms; 6-His; made in house; host or cells: baculovirus expression system (Sf9 is named only for PI3Kγ)
Description: Test (a) In Vitro PI3K Enzyme Assay (AlphaScreen). Format: biochemical. The note with it: read-out: IC50 versus p110α PI3K. From the text: The assay used AlphaScreen technology (Gray et al., Analytical Biochemistry, 2003, 313: 234-245) to determine the ability of test compounds to inhibit phosphorylation by recombinant Type I PI3K enzymes of the lipid PI(4,5)P2.
DNA fragments encoding human PI3K catalytic and regulatory subunits were isolated from cDNA libraries using standard molecular biology and PCR cloning techniques. The selected DNA fragments were used to generate baculovirus expression vectors. In particular, full length DNA of each of the p110α, p110β and p110δ Type Ia human PI3K p110 isoforms (EMBL Accession Nos. HSU79143, S67334, Y10055 for p110α, p110β and p110δ respectively) were sub-cloned into a pDEST10 vector (Invitrogen Limited, Fountain Drive, Paisley, UK). The vector is a Gateway-adapted version of Fastbac1 containing a 6-His epitope tag. A truncated form of Type Ib human PI3K p110γ isoform corresponding to amino acid residues 144-1102 (EMBL Accession No. X8336A) and the full length human p85α regulatory subunit (EMBL Accession No. HSP13KIN) were also sub-cloned into pFastBac1 vector containing a 6-His epitope tag. The Type Ia p110 constructs were co-expressed with the p85α regulatory subunit. Following expression in the baculovirus system using standard baculovirus expression techniques, expressed proteins were purified using the His epitope tag using standard purification techniques.
DNA corresponding to amino acids 263 to 380 of human general receptor for phosphoinositides (Grp1) PH domain was isolated from a cDNA library using standard molecular biology and PCR cloning techniques. The resultant DNA fragment was sub-cloned into a pGEX 4T1 E. coli expression vector containing a GST epitope tag (Amersham Pharmacia Biotech, Rainham, Essex, UK) as described by Gray et al., Analytical Biochemistry, 2003, 313: 234-245). The GST-tagged Grp1 PH domain was expressed and purified using standard techniques.
Test compounds were prepared as […] stock solutions in DMSO and diluted into water as required to give a range of final assay concentrations. Aliquots (2 μl) of each compound dilution were placed into a well of a Greiner 384-well low volume (LV) white polystyrene plate (Greiner Bio-one, Brunel Way, Stonehouse, Gloucestershire, UK Catalogue No. 784075). […]
Biotinylated-DiC8-PI(3,4,5)P3 (50 nM; Cell Signals Inc., Catalogue No. 107), recombinant purified GST-Grp1 PH protein (2.5 nM) and AlphaScreen Anti-GST donor and acceptor beads (100 ng; Packard Bioscience Limited, Station Road, Pangbourne, Berkshire, UK, Catalogue No. 6760603M) were added and the assay plates were left for about 5 to 20 hours at room temperature in the dark. The resultant signals arising from laser light excitation at 680 nm were read using a Packard AlphaQuest instrument. […]

Counter-ions that a name gives are not always drawn.

T1 sequence (P42336 whole entry, canonical isoform): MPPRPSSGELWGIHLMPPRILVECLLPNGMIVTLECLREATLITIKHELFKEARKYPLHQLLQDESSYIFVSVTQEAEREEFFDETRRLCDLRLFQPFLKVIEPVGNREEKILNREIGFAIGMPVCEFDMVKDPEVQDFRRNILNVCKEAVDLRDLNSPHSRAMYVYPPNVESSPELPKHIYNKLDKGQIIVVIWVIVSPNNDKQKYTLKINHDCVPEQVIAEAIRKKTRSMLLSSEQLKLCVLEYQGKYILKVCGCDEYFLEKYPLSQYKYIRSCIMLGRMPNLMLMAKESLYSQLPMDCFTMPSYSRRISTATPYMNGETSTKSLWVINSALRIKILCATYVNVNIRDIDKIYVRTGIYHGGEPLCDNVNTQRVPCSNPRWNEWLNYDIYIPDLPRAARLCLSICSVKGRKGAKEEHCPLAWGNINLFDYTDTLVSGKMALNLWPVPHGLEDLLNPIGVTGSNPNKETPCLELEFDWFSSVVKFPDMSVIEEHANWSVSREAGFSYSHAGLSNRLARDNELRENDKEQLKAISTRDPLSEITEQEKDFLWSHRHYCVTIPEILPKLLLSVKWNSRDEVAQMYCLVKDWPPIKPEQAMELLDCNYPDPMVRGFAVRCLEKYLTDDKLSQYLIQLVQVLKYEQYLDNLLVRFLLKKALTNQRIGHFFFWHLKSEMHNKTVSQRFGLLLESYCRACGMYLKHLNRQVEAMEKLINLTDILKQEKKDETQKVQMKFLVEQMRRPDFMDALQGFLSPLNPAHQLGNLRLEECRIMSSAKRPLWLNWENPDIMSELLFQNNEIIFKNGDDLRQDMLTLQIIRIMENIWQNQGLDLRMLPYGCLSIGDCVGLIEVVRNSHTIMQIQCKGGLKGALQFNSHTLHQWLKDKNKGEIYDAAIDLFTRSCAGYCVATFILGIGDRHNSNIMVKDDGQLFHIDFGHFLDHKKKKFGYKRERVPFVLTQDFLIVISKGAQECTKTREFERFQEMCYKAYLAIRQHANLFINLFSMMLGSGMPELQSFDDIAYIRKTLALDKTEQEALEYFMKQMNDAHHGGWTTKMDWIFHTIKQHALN
T1 sequence (P27986 whole entry partner, canonical isoform): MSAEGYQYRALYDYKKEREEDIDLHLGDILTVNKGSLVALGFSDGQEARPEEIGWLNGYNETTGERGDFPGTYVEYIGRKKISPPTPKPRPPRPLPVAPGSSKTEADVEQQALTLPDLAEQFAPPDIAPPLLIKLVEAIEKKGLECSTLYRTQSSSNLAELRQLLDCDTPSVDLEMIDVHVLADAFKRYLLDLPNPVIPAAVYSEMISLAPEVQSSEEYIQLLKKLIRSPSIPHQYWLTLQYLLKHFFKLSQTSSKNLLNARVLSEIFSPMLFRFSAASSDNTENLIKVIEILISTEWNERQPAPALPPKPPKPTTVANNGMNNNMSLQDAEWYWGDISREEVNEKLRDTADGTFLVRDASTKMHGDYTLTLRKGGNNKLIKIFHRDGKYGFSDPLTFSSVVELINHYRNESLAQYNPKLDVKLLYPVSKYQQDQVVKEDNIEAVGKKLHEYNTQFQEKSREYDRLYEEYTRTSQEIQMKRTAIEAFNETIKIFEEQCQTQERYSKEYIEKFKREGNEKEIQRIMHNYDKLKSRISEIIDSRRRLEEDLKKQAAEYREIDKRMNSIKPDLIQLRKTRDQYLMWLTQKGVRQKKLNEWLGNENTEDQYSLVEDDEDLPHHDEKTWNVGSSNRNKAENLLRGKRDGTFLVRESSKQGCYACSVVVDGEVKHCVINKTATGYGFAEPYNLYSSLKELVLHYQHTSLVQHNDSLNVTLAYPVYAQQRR

As a reminder, the IC50 is the point on the concentration scale where inhibition reaches its midpoint. In the case of `CC(=O)Nc1nc(C)c(-c2cnc(Cl)c(NCc3ccc(F)cc3)c2)s1` [Compound No. 3 within Example 79, N-{5-[6-Chloro-5-(4-fluorobenzylamino)pyridin-3-yl]-4-methyl-1,3-thiazol-2-yl}acetamide], the IC50 was roughly 200 nM.

For `CC(=O)Nc1nc(C)c(-c2cnc(Cl)c(S(=O)(=O)Nc3ccccc3)c2)s1` [Compound No. 4 within Example 73, N-{5-[6-Chloro-5-(N-phenylsulfamoyl)pyridin-3-yl]-4-methyl-1,3-thiazol-2-yl]acetamide], the IC50 is roughly 30 nM.

For `CC(=O)Nc1nc(C)c(-c2cnc(Cl)c(NS(C)(=O)=O)c2)s1` [Example 28, N-[5-(6-Chloro-5-methylsulfonylaminopyridin-3-yl)-4-methyl-1,3-thiazol-2-yl]acetamide trifluoroacetate], the half-maximal inhibitory concentration (IC50) was roughly 10 nM.

These data come from US7868188B2, “5-heteroaryl thiazoles and their use as PI3K inhibitors” (AstraZeneca AB, priority 2004, dated 2011).
